This passage reports inhibition results from ChEMBL document CHEMBL6127019, “Exploitation of the nitro- and/or 4-Trifluoromethyl-decorated phenyl fragment to develop small inhibitors of Alpha-Syn fibril aggregation” (Bioorg Med Chem Lett, 2024).

Active and inactive are the calls of the source. No cut-off for these calls is given here.

The target in one experiment is Alpha-synuclein (Homo sapiens) (UniProt P37840). As to the kind of experiment: Inhibition of alpha alpha-synuclein (unknown origin) fibril aggregation assessed as reduction in TH-T fluorescent signal at 100 uM measured after 5 to 40 hrs by ThT fluorescence assay. The settings on record: time 5-40 hrs.
In the case of `Cc1cc(C)c(Nc2c([N+](=O)[O-])cc(C(F)(F)F)cc2[N+](=O)[O-])c(C)c1`, the inhibition result is “inactive”.

`COc1cccc(Nc2c([N+](=O)[O-])cc(C(F)(F)F)cc2[N+](=O)[O-])c1`: the inhibition result was “inactive”.

With `O=C(COc1ccccc1)Nc1c([N+](=O)[O-])cc(C(F)(F)F)cc1[N+](=O)[O-]`, the inhibition result was “inactive”.

Regarding `Cn1nnnc1Sc1c([N+](=O)[O-])cc(C(F)(F)F)cc1[N+](=O)[O-]`, the inhibition entry is “Active”.

On to `O=[N+]([O-])c1cc(C(F)(F)F)cc([N+](=O)[O-])c1NCCCO`, for which the inhibition entry is “inactive”.

As for `Cc1cc(C)nc(Sc2c([N+](=O)[O-])cc(C(F)(F)F)cc2[N+](=O)[O-])n1`, the inhibition result is “inactive”.

In the case of `O=C(O)CSCc1ccc(C(F)(F)F)cc1`, the inhibition entry was “inactive”.

Consider `Cc1cccc(N2CCC(Nc3c([N+](=O)[O-])cc(C(F)(F)F)cc3[N+](=O)[O-])=N2)c1`, for which the inhibition result is “inactive”.

As for `N#Cc1c(C(F)(F)F)c([N+](=O)[O-])c(-c2cccc([N+](=O)[O-])c2)[nH]c1=O`, the inhibition entry is “Active”.

For `O=[N+]([O-])c1cc(C(F)(F)F)cc([N+](=O)[O-])c1NC1=NN(c2ccccc2)CC1`, the inhibition entry is “inactive”.

`Cn1nnnc1SCc1ccccc1[N+](=O)[O-]`: the inhibition result is “inactive”.

Turning to `Cn1cnnc1SCc1ccc(C(F)(F)F)cc1`, the inhibition result is “inactive”.

Regarding `O=[N+]([O-])c1cc(C(F)(F)F)cc([N+](=O)[O-])c1Sc1c(Cl)c(Cl)nc(Cl)c1Cl`, the inhibition entry was “inactive”.

`O=[N+]([O-])c1cc(C(F)(F)F)cc([N+](=O)[O-])c1Nc1ccc(F)cc1`: the inhibition result was “inactive”.

On to `Cn1nnnc1SCc1ccc(C(F)(F)F)cc1`, for which the inhibition result was “inactive”.

For the compound `O=[N+]([O-])c1cc(C(F)(F)F)cc([N+](=O)[O-])c1N1CCN(CCO)CC1`, the inhibition result was “inactive”.

Consider `O=[N+]([O-])c1cc([N+](=O)[O-])c(Nc2ccccc2)c(C(F)(F)F)c1`, for which the inhibition result is “inactive”.

Take `O=[N+]([O-])c1cc(C(F)(F)F)cc([N+](=O)[O-])c1N1CCN(c2ncnc3ccccc23)CC1`: the inhibition result was “inactive”.

For another experiment the target is unchanged. As to the kind of experiment: Inhibition of alpha alpha-synuclein (unknown origin) fibril aggregation assessed as reduction in TH-T fluorescent signal at 100 uM measured after 5 to 40 hrs by ThT fluorescence assay relative to control. The settings on record: time 5-40 hrs.
Regarding `O=[N+]([O-])c1cc(C(F)(F)F)cc([N+](=O)[O-])c1Nc1cccc(O)c1`, the inhibition amounted to 68%.

As to `O=[N+]([O-])c1cc(C(F)(F)F)cc([N+](=O)[O-])c1F`, the inhibition turned out to be 57%.

For orientation: inhibition means the change of the read-out against control, counted positive when it falls.
